Converted amounts (≈) assume the structure as drawn. Structures can show the parent of a compound that is named as a salt. Where two headings read alike, the source gives them in different places. Marks after values point to notes of the source that are not given here.
What was measured:
[1] = system: histamine-induced shock in guinea pigs; assay: Histamine-induced shock test in guinea pigs; assay type: in vivo; details: gavage, equimolar to 1.00 mg/kg ebastine, histamine phosphate i.v. one hour after administration, n = 10; for Time of accelerated respiration: x ± s
Experimental: One hour after administration, 0.125 wt. % histamine phosphate saline solution was injected intravenously into lateral sides of hind paws of the guinea pigs at 2 ml/kg. After the injection was completed within 10 s, a stopwatch was used immediately to observe the latency period for the guinea pigs to develop accelerated respiration and collapse with convulsions.

[2] = Stability study (influencing factors, HPLC purity); assay type: physicochemical; details: for stability under light / Purity Day 12 under light: 5000Lux; for Purity Day 12 under high temperature / Purity Day 12 under light / Purity Day 0 / Purity Day 12 under high humidity: HPLC; for Purity Day 12 under high temperature: 60° C.; for Purity Day 12 under high humidity: RH80%
Source text: Carebastine (Comparative Example 2, Comparative Example 2′), carebastine potassium salt (Example 1), and carebastine p-toluenesulfonate (Example 3, Example 5).
Three samples of each of carebastine (Comparative Example 2), refined carebastine (Comparative Example 2′), carebastine potassium salt (Example 1), carebastine p-toluenesulfonate (Example 3), and carebastine p-toluenesulfonate (Example 5) were weighed and placed in weighing flasks. The samples of each group were placed under high temperature (60° C.), high humidity (RH80%), and light (5000Lux) conditions, and the samples were taken for testing after 12 days. Note: The refined carebastine of Comparative Example 2′ can be prepared by column chromatography of Comparative Example 2 using common technical means in the related art.
Detection method: An appropriate amount of each of the samples was weighed accurately, and is dissolved in acetonitrile and quantitatively diluted to a solution containing about 0.08 mg per 1 ml. The detection was carried out using high performance liquid chromatography, octadecylsilane bonded silica gel as a filler, and water-acetonitrile (1:1) as a mobile phase, under a detection wavelength of 256 nm, column temperature of 35° C., and injection volume of 10 μL. Each sample solution was injected into the liquid chromatograph and the chromatogram was recorded.

Hygroscopicity study = assay type: physicochemical; details: 25° C.±1° C., relative humidity 80%, 24 hours
Experimental: The preparation of carebastine hydrochloride refers to the description of patent U.S. Pat. No. 6,340,761, and the purity is 99% or more. […] (2) An appropriate amount of the sample was spread flat in the weighing bottle. […] (3) The weighing bottle was opened and placed with the lid under the above constant temperature and humidity conditions for 24 hours. (4) The lid was put on the weighing bottle and the weight was accurately weighed (m3).

[3] = Solubility test in different media; assay type: physicochemical
Experimental: Carebastine (Comparative Example 2) and carebastine p-toluenesulfonate (Example 3).
Hydrochloric acid solution with a pH of 1.2:7.65 ml of hydrochloric acid was diluted to 1000 ml with water, and shaken evenly to obtain the solution.
Phosphate buffer with a pH of 4.5:3.40278 g of KH2PO4 was weighed, dissolved in water and diluted to 500 ml, and shaken evenly to obtain the solution.
Phosphate buffer with a pH of 6.8:3.40353 g of KH2PO4 and 0.4428 g of sodium hydroxide were weighed, dissolved in water and diluted to 500 ml, and shaken evenly to obtain the solution.
Appropriate amounts of the compounds of Example 3 and Comparative Example 2 were respectively placed in conical flasks containing 50 ml of water, 50 ml of a hydrochloric acid solution with a pH of 1.2, 50 ml of a phosphate buffer with a pH of 4.5, and 50 ml of a phosphate buffer with a pH of 6.8, respectively, so that the solutions were supersaturated and insoluble matter was clearly visible.
The conical flasks were placed in a thermostatic water bath at 37° C. and an oscillation rate of 120 r/min. Samples were taken at 24 h, 48 h, and 72 h, and detected by liquid chromatography.

KM mice = details: for Mortality rate of mice / Number of surviving mice / abnormalities during observation period and in gross anatomical observation: single intragastric; for Mortality rate of mice / Number of surviving mice: 14 days observation; for Number of surviving mice: 10 mice per group; for abnormalities during observation period and in gross anatomical observation: low dose, mice
Experimental: All drugs were administered by intragastric administration, and the blank control group was administered with an equal volume of 0.5% CMC-Na solution. All animals were fasted for 12 hours before administration, but were allowed to drink water freely.
After administration, the mice were kept and observed for 14 days, and the toxic reactions (such as death) of the mice were observed and recorded every day. After the observation period, all surviving animals were dissected to observe whether there were obvious lesions in each organ.

[4] = assay type: in vivo; details: SD rats
Experimental: Twenty-four SD rats weighing about 180 g to 200 g were randomly divided into 4 groups, with 6 rats in each group, half of which were male and half were female. The rats were given the corresponding drugs by intragastric administration.
The rats were fasted for 12 hours before administration, but were allowed to drink water freely.
Preparation of test substances: The preparation of test substances was carried out on the workbench in the related art in the preparation room.
Blank blood was collected before administration, and blood was collected at predetermined time points of 0.25 h, 0.5 h, 0.75 h, 1 h, 2 h, 3 h, 4 h, 6 h, 8 h, 10 h, and 24 h after administration. About 0.5 mL of blood was collected and placed in an EDTA-K2 tube, and the plasma was separated by centrifugation and stored at −80° C. The prototype and the metabolite, namely, carebastine, in a plasma sample were detected and analyzed by liquid chromatography-mass spectrometry (LC-MS/MS), and pharmacokinetic parameters were calculated.

[5] = high dose (equimolar to 5 g/kg ebastine)
[6] = low dose (equimolar to 2.5 g/kg ebastine)

CC(C)(C(=O)[O-])c1ccc(C(=O)CCCN2CCC(OC(c3ccccc3)c3ccccc3)CC2)cc1.[Na+] [Example 2, sodium 2-(4-(4-(4-(diphenylmethoxy)piperidin-1-yl)butyryl)phenyl)-2-methylpropanoate]
Mortality rate [1]: 0/10
Time of convulsion and collapse [1]: >600*^▴ s
Time of accelerated respiration [1]: 275 ± 31.41 s

CC(C)(C(=O)O)c1ccc(C(=O)CCCN2CCC(OC(c3ccccc3)c3ccccc3)CC2)cc1 [Comparative Example 2, 2-(4-(4-(4-(diphenylmethoxy)piperidin-1-yl)butyryl)phenyl)-2-methylpropanoic acid]
stability under light ([2]; 12 days): extremely unstable
Purity Day 12 under high temperature ([2]; 12 days): 97.22%
Purity Day 12 under light ([2]; 12 days): 87.28%
Purity Day 0 [2]: 97.78%
Purity Day 12 under high humidity ([2]; 12 days): 97.41%
Characteristic description (hygroscopicity) (Hygroscopicity study): Hygroscopic
Weight gain Percentage (Hygroscopicity study): 6%
solubility ([3]; Hydrochloric acid solution with a pH of 1.2, 37° C., 24 h): 0.46 mg/mL (≈ 921 µM)
solubility ([3]; Hydrochloric acid solution with a pH of 1.2, 37° C., 48 h): 0.54 mg/mL (≈ 1080 µM)
solubility ([3]; Hydrochloric acid solution with a pH of 1.2, 37° C., 72 h): 0.39 mg/mL (≈ 781 µM)
solubility ([3]; Phosphate buffer with a pH of 4.5, 37° C., 24 h): 0.20 mg/mL (≈ 400 µM)
solubility ([3]; Phosphate buffer with a pH of 4.5, 37° C., 48 h): 0.19 mg/mL (≈ 380 µM)
solubility ([3]; Phosphate buffer with a pH of 4.5, 37° C., 72 h): 0.20 mg/mL (≈ 400 µM)
solubility ([3]; Phosphate buffer with a pH of 6.8, 37° C., 24 h): 0.03 mg/mL (≈ 60 µM)
solubility ([3]; Phosphate buffer with a pH of 6.8, 37° C., 48 h): 0.03 mg/mL (≈ 60 µM)
solubility ([3]; Phosphate buffer with a pH of 6.8, 37° C., 72 h): 0.03 mg/mL (≈ 60 µM)
solubility ([3]; Water, 37° C., 24 h): 0.72 mg/mL (≈ 1440 µM)
solubility ([3]; Water, 37° C., 48 h): 0.52 mg/mL (≈ 1040 µM)
solubility ([3]; Water, 37° C., 72 h): 0.52 mg/mL (≈ 1040 µM)

CC(C)(C(=O)O)c1ccc(C(=O)CCCN2CCC(OC(c3ccccc3)c3ccccc3)CC2)cc1.Cc1ccc(S(=O)(=O)O)cc1 [Example 5, carebastine p-toluenesulfonate]
Purity Day 12 under high temperature ([2]; 12 days): 97.90%
Purity Day 12 under light ([2]; 12 days): 97.80%
Purity Day 0 [2]: 97.90%
Purity Day 12 under high humidity ([2]; 12 days): 97.89%

CC(C)(C(=O)O)c1ccc(C(=O)CCCN2CCC(OC(c3ccccc3)c3ccccc3)CC2)cc1 [Comparative Example 3, carebastine hydrochloride]
Characteristic description (hygroscopicity) (Hygroscopicity study; hydrochloride): Extremely hygroscopic
Weight gain Percentage (Hygroscopicity study; hydrochloride): 15.9%
solubility [3]: 0.08 mg/mL
solubility ([3]; pH 6.8): 0.01 mg/mL

CC(C)(C(=O)O)c1ccc(C(=O)CCCN2CCC(OC(c3ccccc3)c3ccccc3)CC2)cc1.CS(=O)(=O)O [Example 4, 2-(4-(4-(4-(diphenylmethoxy)piperidin-1-yl)butyryl)phenyl)-2-methylpropanoic acid methanesulfonate]
Mortality rate [1]: 0/10
Time of convulsion and collapse [1]: >600*^▴ s
Time of accelerated respiration [1]: 256 ± 24.05 s

CC(C)(C(=O)O)c1ccc(C(=O)CCCN2CCC(OC(c3ccccc3)c3ccccc3)CC2)cc1 [Comparative Example 2′, carebastine]
Purity Day 12 under high temperature ([2]; 12 days): 99.45%
Purity Day 12 under light ([2]; 12 days): 88.11%
Purity Day 0 [2]: 99.65%
Purity Day 12 under high humidity ([2]; 12 days): 99.25%

CC(C)(C(=O)O)c1ccc(C(=O)CCCN2CCC(OC(c3ccccc3)c3ccccc3)CC2)cc1.Cc1ccc(S(=O)(=O)O)cc1 [Example 3, 2-(4-(4-(4-(diphenylmethoxy)piperidin-1-yl)butyryl)phenyl)-2-methylpropanoic acid p-toluenesulfonate]
stability under high temperature, high humidity and light conditions ([2]; 12 days): stable
Purity Day 12 under high temperature ([2]; 12 days, p-toluenesulfonate): 99.94%
Purity Day 12 under light ([2]; 12 days, p-toluenesulfonate): 99.91%
Purity Day 0 ([2]; p-toluenesulfonate): 99.99%
Purity Day 12 under high humidity ([2]; 12 days, p-toluenesulfonate): 99.98%
Mortality rate [1]: 0/10
Time of convulsion and collapse [1]: >600*^▴ s
Time of accelerated respiration [1]: 351 ± 38.16 s
Mortality rate of mice (KM mice; [5]): 10%
Number of surviving mice (KM mice; [5]): 9
Mortality rate of mice (KM mice; [6]): 0
Number of surviving mice (KM mice; [6]): 10
abnormalities during observation period and in gross anatomical observation (KM mice; 14 days): no obvious abnormalities were observed
Characteristic description (hygroscopicity) (Hygroscopicity study): Slightly hygroscopic
Weight gain Percentage (Hygroscopicity study): 0.3%

CC(C)(C)c1ccc(C(=O)CCCN2CCC(OC(c3ccccc3)c3ccccc3)CC2)cc1 [Comparative Example 1, ebastine]
Mortality rate [1]: 0/10
Time of convulsion and collapse [1]: 349* s
MDT (KM mice; both, KM, mouse, in vivo, 14 days): > 2.5 g/kg
gender differences (AUC and Cmax, female vs male rats) ([4]; three female vs three male per group): showed gender differences
content of the prototype ([4]; prototype (ebastine) in plasma, single intragastric 10 mg/kg): lower than 3 ng/mL

CC(C)(C(=O)[O-])c1ccc(C(=O)CCCN2CCC(OC(c3ccccc3)c3ccccc3)CC2)cc1.[K+] [Example 1, potassium 2-(4-(4-(4-(diphenylmethoxy)piperidin-1-yl)butyryl)phenyl)-2-methylpropanoate]
stability under light ([2]; 12 days): slightly reduced
Purity Day 12 under high temperature ([2]; 12 days): 98.23%
Purity Day 12 under light ([2]; 12 days): 97.48%
Purity Day 0 [2]: 98.42%
Purity Day 12 under high humidity ([2]; 12 days): 98.38%
Mortality rate [1]: 0/10
Time of convulsion and collapse [1]: >600*^▴ s
Time of accelerated respiration [1]: 294 ± 24.42 s
Mortality rate of mice (KM mice; [5]): 20%
Number of surviving mice (KM mice; [5]): 8
Mortality rate of mice (KM mice; [6]): 0
Number of surviving mice (KM mice; [6]): 10
abnormalities during observation period and in gross anatomical observation (KM mice; 14 days): no obvious abnormalities were observed
Characteristic description (hygroscopicity) (Hygroscopicity study): No or almost no hygroscopicity
Weight gain Percentage (Hygroscopicity study): −0.2%

Reference: patent US20250326720A1, “CAREBASTINE SALT AND USE OF SAME” (priority 2022, published 2025)
